Measured values taken from patent US20250353858A1, “CONDENSED HETEROCYCLIC COMPOUNDS AS INHIBITOR OF DIACYLGLYCEROL KINASES” (BEONE MEDICINES I GMBH, priority 2023, published 2025).

Columns and labels:
DGKζ = DGKζ (Homo sapiens (Human), UniProt Q13574); assay: Biochemical DGK IC50 assay (ADP-Glo, lipid micelle substrate), DGKζ; details: full length DGKζ 0.5 nM, ATP 140 μM, DAG 80 μM
Method: (§1) Enzymatic reactions of DGKζ, DGKα and DGKδ were performed using ADP-Glo assay with lipid micelle substrate. […] Full length DGKα (D21-10BG, SignalChem) and full length DGKδ (D23-10G, SignalChem) were purchased. Lipid micelle was prepared by dissolving DAG (Sigma, 317505-10MG) and PS (Sigma, P7769-100MG) with chloroform which was furtherly removed by rotary evaporation. The resulted product was resuspended in buffer containing 25 mM HEPES pH 7.0, 0.5 mM EDTA and 160 mM Octyl β-D glucopyranoside by vigorous mixing and ultrasonic (IID, Scientz).
(§2) The inhibition activities testing for the compound disclosed herein were carried out at room temperature in assay buffer containing 50 mM HEPES, 10 mM MgCl2, 0.01% BSA, 0.1 mM Na3VO4, 0.005% Tween-20 and 0.01 mM CaCl2. Compounds in DMSO were dispensed into wells of a black 384 well plate (Corning 4514) using D300e digital dispenser (Tecan). […] 3 μL 2× enzyme solution was added to wells. […] After 1 hour reaction, 5 μL ADP-Glo reagent (Promga V9101) was added and incubated for 40 minutes. 10 μL Kinase Detection reagent was added and incubated for 30 minutes. Luminescence was measured on a microplate reader (PHERAstar FSX, BMG labtech). The IC50s are calculated based on inhibition of enzyme activity in the presence of increasing concentrations of compounds.
Human His-TEV-DGK-zeta-pFastBac1 and human baculovirus samples was generated using the Bac-to-Bac baculovirus expression system (Invitrogen) according to the manufacturer's protocol. The DNA used for expression of DGK-zeta, have SEQ ID Nos: 1. Baculovirus amplification was achieved using infected SF9 cells at 1:2000 virus/cells ratios, and grown for 96 hours at 27° C. post-transfected.
Full length human DGKζ produced as described above, was purified from Sf9 baculovirus-infected insect cell paste. The cells were lysed using sonication method, and the lysates were clarified by centrifugation.

DGKα = DGKα (Homo sapiens (Human), UniProt P23743); assay: Biochemical DGK IC50 assay (ADP-Glo, lipid micelle substrate), DGKα; details: full length DGKα […], ATP 140 μM, DAG 80 μM; also: full length DGKα 7.5 nM
DGKα, sequence (P23743 whole entry): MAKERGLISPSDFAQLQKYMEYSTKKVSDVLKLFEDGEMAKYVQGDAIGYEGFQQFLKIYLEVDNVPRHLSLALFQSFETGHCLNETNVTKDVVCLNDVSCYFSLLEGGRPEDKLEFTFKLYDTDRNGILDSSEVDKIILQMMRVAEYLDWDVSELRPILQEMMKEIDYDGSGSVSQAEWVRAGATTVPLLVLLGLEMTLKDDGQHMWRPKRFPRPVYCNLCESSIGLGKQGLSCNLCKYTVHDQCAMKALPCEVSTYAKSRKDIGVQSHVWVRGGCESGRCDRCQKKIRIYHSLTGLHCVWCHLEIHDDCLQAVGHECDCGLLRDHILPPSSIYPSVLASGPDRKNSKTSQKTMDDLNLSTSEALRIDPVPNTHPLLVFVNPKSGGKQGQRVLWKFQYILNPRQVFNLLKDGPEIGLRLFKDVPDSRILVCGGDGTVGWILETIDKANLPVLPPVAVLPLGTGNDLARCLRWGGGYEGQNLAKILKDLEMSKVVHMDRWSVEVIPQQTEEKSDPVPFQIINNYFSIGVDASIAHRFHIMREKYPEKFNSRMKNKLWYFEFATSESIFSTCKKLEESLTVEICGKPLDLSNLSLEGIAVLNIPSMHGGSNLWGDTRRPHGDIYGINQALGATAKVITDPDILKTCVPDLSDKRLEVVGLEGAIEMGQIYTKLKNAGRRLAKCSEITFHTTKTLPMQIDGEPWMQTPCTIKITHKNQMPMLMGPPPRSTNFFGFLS
Method: as §1, §2

DGKζ, sequence (Q13574 other isoform, or with tags, fused parts or gaps): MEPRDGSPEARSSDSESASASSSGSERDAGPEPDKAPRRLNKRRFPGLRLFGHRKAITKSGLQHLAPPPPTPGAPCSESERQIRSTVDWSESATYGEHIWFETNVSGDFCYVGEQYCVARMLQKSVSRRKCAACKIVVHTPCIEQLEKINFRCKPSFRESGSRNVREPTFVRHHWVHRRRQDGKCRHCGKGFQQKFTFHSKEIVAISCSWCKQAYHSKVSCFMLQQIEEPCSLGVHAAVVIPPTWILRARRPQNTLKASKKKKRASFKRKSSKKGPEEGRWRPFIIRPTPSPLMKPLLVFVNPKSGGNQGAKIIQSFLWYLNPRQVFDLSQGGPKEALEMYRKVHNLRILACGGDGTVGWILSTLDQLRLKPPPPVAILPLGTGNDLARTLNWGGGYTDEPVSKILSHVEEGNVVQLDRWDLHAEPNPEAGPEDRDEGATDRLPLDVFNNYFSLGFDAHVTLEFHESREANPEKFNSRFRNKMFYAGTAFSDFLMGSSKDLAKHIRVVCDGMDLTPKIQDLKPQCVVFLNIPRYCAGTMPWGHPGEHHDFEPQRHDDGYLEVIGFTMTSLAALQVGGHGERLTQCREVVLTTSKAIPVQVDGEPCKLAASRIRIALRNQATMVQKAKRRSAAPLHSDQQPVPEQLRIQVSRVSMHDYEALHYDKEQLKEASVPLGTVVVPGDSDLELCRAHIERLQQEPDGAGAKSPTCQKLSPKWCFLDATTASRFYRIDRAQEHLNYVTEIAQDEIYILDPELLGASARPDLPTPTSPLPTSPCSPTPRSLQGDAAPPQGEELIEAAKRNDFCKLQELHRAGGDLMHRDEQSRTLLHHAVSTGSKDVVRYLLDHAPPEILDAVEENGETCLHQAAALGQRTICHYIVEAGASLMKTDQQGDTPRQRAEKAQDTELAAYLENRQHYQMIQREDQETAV

| SMILES | IC50 (DGKζ) [nM] | IC50 (DGKα) [nM] |
| --- | --- | --- |
| CC[C@H]1CN(C(C)c2ccn3nc(F)cc3n2)[C@H](CC)CN1c1cc(=O)n(C)c2cc(CC#N)nn12 (single isomer, unassigned) [Compound A41a] | 80 | 25 |
| CC(c1ccc2nccnc2c1)N1CCC(c2cc(=O)n(C)c3cc(CC#N)nn23)C[C@@H]1C (single isomer, unassigned) [Compound A34a] | 5710 | > 150000 |
| CC[C@H]1CN(C(C)c2ccn3nc(C)cc3c2)[C@H](CC)CN1c1nc(=O)n(C)c2cc(CC#N)nn12 (stereo partly drawn) [Compound A55, 2-(4-((2S,5R)-2,5-diethyl-4-(1-(2-methylpyrazolo[1,5-a]pyridin-5-yl)ethyl)piperazin-1-yl)-1-methyl-2-oxo-1,2-dihydropyrazolo[1,5-a][1,3,5]triazin-7-yl)acetonitrile] | 53 | 150 |

Now from value to compound:

| IC50 (DGKζ) [nM] | IC50 (DGKα) [nM] | SMILES |
| --- | --- | --- |
| 4690 | 2260 | CC[C@H]1CN(C(C)c2ccc3nc(C)sc3n2)[C@H](CC)CN1c1cc(=O)n(C)c2cc(CC#N)nn12 (single isomer, unassigned) [Compound A35a] |
| 1540 | 1590 | CC[C@@H]1CN(c2cc(=O)n(C)c3cc(CC#N)nn23)[C@@H](C)CN1[C@H](C)c1ccc2ncsc2n1 (single isomer, unassigned) [Compound A29b] |
| 629 | 1580 | CC[C@H]1CN(C(C)c2ccc3nc(C)sc3n2)[C@H](CC)CN1c1c(F)c(=O)n(C)c2cc(CC#N)nn12 (stereo partly drawn) [Compound A36, 2-(7-((2S,5R)-2,5-diethyl-4-(1-(2-methylthiazolo[5,4-b]pyridin-5-yl)ethyl)piperazin-1-yl)-6-fluoro-4-methyl-5-oxo-4,5-dihydropyrazolo[1,5-a]pyrimidin-2-yl)acetonitrile] |
| 469 | 205 | CC[C@H]1CN(C(C)c2ccc3nc(C)cn3n2)[C@H](CC)CN1c1cc(=O)n(C)c2cc(CC#N)nn12 (single isomer, unassigned) [Compound A38b] |
| 31 | 72 | CC[C@H]1CN(C(C)c2ccc3nc(C)sc3n2)[C@H](CC)CN1c1cc(=O)n(C)c2cc(CC#N)nn12 (single isomer, unassigned) [Compound A35b] |
